Source: ChEMBL document CHEMBL3407452, “Linear and branched alkyl-esters and amides of gallic acid and other (mono-, di- and tri-) hydroxy benzoyl derivatives as promising anti-HCV inhibitors” (Eur J Med Chem, 2015)
Active and inactive are the calls of the source. No cut-off for these calls is given here.

Tests used:
Coxsackievirus B4 = experiment: Antiviral activity against human coxsackievirus B4; format: functional, organism-based
[1] = tested on: Human immunodeficiency virus 2; experiment: Antiviral activity against HIV2 ROD infected in human CEM cells assessed as reduction in virus-induced cytopathicity after 4 to 5 days by microscopy based syncytium cell formation assay; format: functional, organism-based, ISOLATE ROD, CCRF-CEM; details: Human immunodeficiency virus 2, ISOLATE ROD, CCRF-CEM; read-out: EC50
[2] = tested on: Respiratory syncytial virus; experiment: Antiviral activity against RSV; format: functional, organism-based
[3] = tested on: Vesicular stomatitis virus; experiment: Antiviral activity against vesicular stomatitis virus; format: functional, organism-based
Sindbis virus = experiment: Antiviral activity against sindbis virus; format: functional, organism-based
Reovirus sp. = experiment: Antiviral activity against reovirus; format: functional, organism-based
Influenza A virus H3N2 = experiment: Antiviral activity against influenza A virus H3N2; format: functional, organism-based
Human respirovirus 3 = experiment: Antiviral activity against human parainfluenza virus 3; format: functional, organism-based
[4] = tested on: Human immunodeficiency virus 1; experiment: Antiviral activity against HIV1 3B infected in human CEM cells assessed as reduction in virus-induced cytopathicity after 4 to 5 days by microscopy based syncytium cell formation assay; format: functional, organism-based, CCRF-CEM; details: Human immunodeficiency virus 1, 3B, CCRF-CEM; read-out: EC50
Influenza A virus = experiment: Antiviral activity against influenza A virus (H1N1); format: functional, organism-based
[5] = Cytotoxicity against human CEM cells assessed as inhibition of cell proliferation; format: cell-based; details: CEM cells (CCRF-CEM)
Vaccinia virus = experiment: Antiviral activity against vaccinia virus; format: functional, organism-based; details: Orthopoxvirus vaccinia
Felid alphaherpesvirus 1 = experiment: Antiviral activity against feline herpesvirus; format: functional, organism-based
Chikungunya virus = experiment: Antiviral activity against chikungunya virus; format: functional
Feline coronavirus = experiment: Antiviral activity against feline coronavirus; format: functional, organism-based
Punta Toro virus = experiment: Antiviral activity against punta toro virus; format: functional, organism-based
[6] = Cytotoxicity against human Huh5-2 cells after 72 hrs by MTS assay; format: cell-based, Huh-5-2
Hepatitis C virus = experiment: Antiviral activity against HCV genotype 1b I389luc-ubi-neo/NS3-3'/5.1 replicons infected in human Huh5-2 HCV subgenomic replicon-containing cells assessed as reduction in virus replication after 3 days by luciferase reporter gene assay; format: functional, Hepacivirus hominis; details: Hepatitis C virus, genotype 1b, Huh-5-2, 72 h; for EC50: read-out: EC50

Row | Compound | Activity (Coxsackievirus B4) | EC50 [1] | Activity [2] | Activity [3] | Activity (Sindbis virus) | Activity (Reovirus sp.) | Activity (Influenza A virus H3N2) | Activity (Human respirovirus 3) | EC50 [4] | Activity (Influenza A virus) | CC50 [5] | Activity (Vaccinia virus) | Activity (Felid alphaherpesvirus 1) | Activity (Chikungunya virus) | Activity (Feline coronavirus) | Activity (Punta Toro virus) | CC50 at 72 h [6] | EC50 (Hepatitis C virus) | EC90 (Hepatitis C virus)
1 | O=C(NCCNC(=O)c1ccccc1O)c1ccccc1O | inactive | > 10 µM | inactive | inactive | inactive | inactive | inactive | inactive | > 10 µM | inactive | 25 µM | inactive | inactive | inactive | inactive | inactive |  |  | 
2 | O=C(NCCCCNC(=O)c1ccccc1O)c1ccccc1O | inactive |  | inactive | inactive | inactive | inactive | inactive | inactive | > 10 µM | inactive | 35 µM | inactive | inactive | inactive | inactive | inactive | > 49 µM | 11 µM | 
3 | O=C(NCCCCNC(=O)c1cc(O)c(O)c(O)c1)c1cc(O)c(O)c(O)c1 | inactive | > 10 µM | inactive | inactive | inactive | inactive | inactive | inactive | 5.2 µM | inactive | 23 µM | inactive | inactive | inactive | inactive | inactive | 29 µM | 18 µM | > 29 µM
4 | O=C(NCCCCCCCCCCNC(=O)c1ccc(O)c(O)c1O)c1ccc(O)c(O)c1O | inactive | > 50 µM | inactive | inactive | inactive | inactive | inactive | inactive | > 50 µM | inactive | 100 µM | inactive | inactive | inactive | inactive | inactive | > 100 µM | 11 µM | 
5 | O=C(NCCCCCCCCNC(=O)c1ccc(O)c(O)c1O)c1ccc(O)c(O)c1O | inactive | > 50 µM | inactive | inactive | inactive | inactive | inactive | inactive | > 50 µM | inactive | 82 µM | inactive | inactive | inactive | inactive | inactive | 34 µM | 25 µM | 
6 | O=C(NCCCCNC(=O)c1ccc(O)c(O)c1O)c1ccc(O)c(O)c1O | inactive | > 10 µM | inactive | inactive | inactive | inactive | inactive | inactive | > 10 µM | inactive | 109 µM | inactive | inactive | inactive | inactive | inactive | > 50 µM | 15 µM | > 50 µM
7 | O=C(NCCCCCCCCCCCCNC(=O)c1cccc(O)c1O)c1cccc(O)c1O | inactive | > 2 µM | inactive | inactive | inactive | inactive | inactive | inactive | > 2 µM | inactive | 4.8 µM | inactive | inactive | inactive | inactive | inactive | 108 µM | 2 µM | 4.8 µM
8 | CCC[C@H](NC(=O)[C@@H]1[C@H]2CCC[C@H]2CN1C(=O)[C@@H](NC(=O)[C@@H](NC(=O)c1cnccn1)C1CCCCC1)C(C)(C)C)C(=O)C(=O)NC1CC1 [TELAPREVIR] |  |  |  |  |  |  |  |  |  |  |  |  |  |  |  |  | 47 µM | 2.8 µM | 
9 | O=C(NCCCCCCNC(=O)c1cc(O)c(O)c(O)c1)c1cc(O)c(O)c(O)c1 | inactive | > 10 µM | inactive | inactive | inactive | inactive | inactive | inactive | > 10 µM | inactive | 72 µM | inactive | inactive | inactive | inactive | inactive | 24 µM | 11 µM | > 24 µM
10 | O=C(NCCNC(=O)c1cccc(O)c1O)c1cccc(O)c1O | inactive | > 10 µM | inactive | inactive | inactive | inactive | inactive | inactive | > 10 µM | inactive | 19 µM | inactive | inactive | inactive | inactive | inactive |  |  | 
11 | O=C(NCCCCCCCCNC(=O)c1cc(O)c(O)c(O)c1)c1cc(O)c(O)c(O)c1 | inactive |  | inactive | inactive | inactive | inactive | inactive | inactive | > 10 µM | inactive | 51 µM | inactive | inactive | inactive | inactive | inactive | > 50 µM | 23 µM | > 50 µM
12 | O=C(NCCN(CCNC(=O)c1cc(O)c(O)c(O)c1)CCNC(=O)c1cc(O)c(O)c(O)c1)c1cc(O)c(O)c(O)c1 | inactive |  | inactive | inactive | inactive | inactive | inactive | inactive | 10 µM | inactive | 54 µM | inactive | inactive | inactive | inactive | inactive | > 2.9 µM | > 2.9 µM | > 2.9 µM
13 | COc1ccc(C(=O)NCCCCCCCCCCCCNC(=O)c2ccc(OC)c(OC)c2OC)c(OC)c1OC |  |  |  |  |  |  |  |  |  |  |  |  |  |  |  |  | 5.4 µM | > 3.5 µM | 
14 | O=C(O)c1cc(O)c(O)c(O)c1 [GALLIC ACID] | inactive | > 50 µM | inactive | inactive | inactive | inactive | inactive | inactive | > 50 µM | inactive | > 250 µM | inactive | inactive | inactive | inactive | inactive |  |  | 
15 | CCCCCCCCOC(=O)c1cc(O)c(O)c(O)c1 [OCTYL_GALLATE] | inactive | > 2 µM | inactive | inactive | inactive | inactive | inactive | inactive | > 2 µM | inactive | 11 µM | inactive | inactive | inactive | inactive | inactive |  |  | 
16 | O=C(NCCN(CCNC(=O)c1cc(O)c(O)c(O)c1)C(=O)c1cc(O)c(O)c(O)c1)c1cc(O)c(O)c(O)c1 | inactive | > 10 µM | inactive | inactive | inactive | inactive | inactive | inactive | > 10 µM | inactive | 34 µM | inactive | inactive | inactive | inactive | inactive |  |  | 
